“Also recorded” adds a separate entry of the source.
Tests used:
[1] = test system: aggregation of platelets induced by ADP; assay: ADP-induced aggregation of platelets recovered from AP4 A-infused rabbits; type: in vivo, rabbit
Experimental: (§1) After preliminary trials, a standard AP4 A infusion protocol was established as follows: A dose of AP4 A at 50 mg/kg was reconstituted in 10 ml of normal saline and infused by pump at a uniform rate over two hours. Control rabbits received 10 ml of saline alone. The intracarotid cannula was inserted, and the re-establishment of blood flow timed at 15 minutes into the infusion. Upon the completion of infusion at 2 hours, the intracarotid tubing was removed, and its contents flushed out into a petri dish. The presence of a clot or of liquid blood contents was noted.
(§2) Rabbit carotid arterial blood was collected in 3.8% sodium citrate (9 volumes blood to 1 volume citrate). Platelet rich plasma (PRP) and platelet poor plasma (PPP) were prepared by centrifugation at 150 g and 1,000 g for 10 minutes respectively. Aggregation studies were performed in a Chrono-Log (Havertown, Pa.) aggregometer with ADP or collagen as aggregating agents. ADP (Sigma Chemical Co.) was used in a final concentration of 2×10^-5 M. Calf skin collagen (Sigma Chemical Co.) was used in a final concentration of 200 ug/ml.

[2] = Decay of AP4 A / ATP in incubated rabbit blood collected at the end of AP4 A infusion (ex vivo); type: in vitro ADME; conditions: for level of AP4 A as compared to baseline: 37° C.
Experimental: Blood samples were collected from the carotid artery through a catheter before and after (0, 10, 20, 40, and 60 minutes) infusion of AP4 A. Blood was anticoagulated by mixing with 0.15 volume of acid-citrate-dextrose solution. An aliquot of blood collected at the end of AP4 A infusion (to sample) was incubated at 37° C. and sampled at 10, 20, 40, and 60 minutes to evaluate the in vitro decay of AP4 A. Blood samples of […] 3% perchloric acid and kept at 0° C. for 30 minutes with intermittent vortexing. The acid soluble fraction was recovered by centrifugation at 1000 g for 10 minutes and neutralized by 5M K2 CO3. It was then kept at -80° C. until assay of the nucleotides. The AP4 A assay was performed by coupling the phosphodiesterase and luciferase reactions in a luminometer (Model 6100 Picolite, Packard, Downers Grove, Ill.). The detailed method of AP4 A and ATP assays has been reported elsewhere (Kim, B. K., Chao, F. C., Leavitt, R., Fauci, A. S., Meyers, K. M. and Zamecnik, P. C. Blood, 66:735-737, 1985).
The disappearance of infused AP4 A in the circulation and in incubated blood was studied in 2 rabbits. Mean values of hemoglobin, hematocrit and platelet count were 10.1 g/dl, 30.8% and 362,000/ul respectively. The blood content of AP4 A in the rabbits was 51 nmol/1 blood prior to infusion. […] Kim, B. K. et al., Blood, 66:735-737 (1985); Flodgaard, H., Zamecnik, P. C. Meyers, K. and Klenow, H., Thrombosis Research, 37:345-351 (1986). […] A very rapid disappearance of infused AP4 A was observed, with complete clearance within 10 minutes after infusion. When blood samples obtained at the end of AP4 A infusion were incubated at 37° C., only 15-fold and 4-fold levels of AP4 A, as compared to baseline could be detected after 10 minutes and 20 minutes respectively.

[3] = test system: rabbit platelet aggregation by ADP; assay: ADP-induced aggregation of rabbit platelets; type: cell-based
Experimental: as §2
(§3) The effect of AP4 A on rabbit platelet aggregation by ADP and collagen was tested. […] The anti-aggregatory effect of AP4 A was detected at a concentration of 2×10^-4 M (tenfold that of ADP) and increased in a dose-response pattern with increasing concentrations (FIG. 1).

[4] = test system: Intracarotid Artery Thrombosis; assay: Intracarotid cannula arterial thrombosis model in rabbits; type: in vivo, rabbit
Experimental: Gurewich, V. and Lipinski, B. Thrombosis Research, 9:101 (1976); Louie, S. and Gurewich, V. Thrombosis Research, 30:323-335 (1983).
Male, New Zealand white rabbits, weighing 2-2.5 kg., were anesthetized with ketamine hydrochloride (100 mg/kg intramuscularly). AP4 A (Boehringer (100 Mannheim Biochemicals, Indianapolis, Ind.), or saline control was infused via a marginal ear vein. A segment of the left common carotid artery was isolated by vascular clamps. A 1 cm. length of polyethylene tubing (PE-90, Clay Adams, Parsippany, N.Y.) was inserted, secured by silk ligatures, and the blood flow re-established by removing the clamps. Blood was sampled from the right carotid artery for assays of AP4 A and ATP, and for platelet aggregation studies.
as §1
Twenty-five rabbits each were assigned to the experimental group that received AP4 A (50 mg/kg), and the control group that received normal saline alone. The incidence of clot formation in the intracarotid cannula in the two groups was compared by the Chi-Square test.
Initially, twelve rabbits received a constant infusion of E10 over a 2 hour period at a dosage of 100 mg in 10 ml. These intravenous infusions were performed as described above for AP4 A.
In addition, 30 mg of E10 in 3 ml saline was administered as a single injection over a one minute time span at the beginning of the cannulation period.

[5] = test system: collagen-induced aggregation of platelets; assay: Collagen-induced aggregation of platelets recovered from AP4 A-infused rabbits; type: in vivo, rabbit; conditions: 50 mg per kg over 2 hours; collagen 200 ug/ml (FIG. 4)
Experimental: as §1, §2

[6] = test system: ADP induced platelet aggregation; conditions: in vitro; even when aggregation has progressed to 60% completion; cited from earlier work
[7] = plasma; cited from earlier work
[8] = test system: rabbit platelet aggregation by collagen; assay: Collagen-induced aggregation of rabbit platelets; type: cell-based
Experimental: as §2, §3

[9] = AP4 A 50 mg/kg infused over 2 hours, 25 rabbits

Nc1ncnc2c1ncn2[C@@H]1O[C@H](COP(=O)(O)OP(=O)(O)OP(=O)(O)OP(=O)(O)OC[C@H]2O[C@@H](n3cnc4c(N)ncnc43)[C@H](O)[C@@H]2O)[C@@H](O)[C@H]1O [AP4 A, diadenosine 5',5'"-p^1,p^4 -tetraphosphate]
aggregation of platelets induced by ADP after AP4 A infusion ([1]; 50 mg per kg over 2 hours, ADP 2×10^-5 M (FIG. 4)): diminished response to ADP-induced aggregation; also recorded: markedly blunted
inhibition of ADP-induced platelet aggregation on administration to a mammal ([1]; rabbit, in vivo): markedly inhibit ADP-induced platelet aggregation
level of AP4 A as compared to baseline ([2]; ex vivo, after 10 minutes): 15 fold
level of AP4 A as compared to baseline ([2]; ex vivo, after 20 minutes): 4 fold
ATP, umol/l blood ([2]; ex vivo, 10 min at 37° C.): 570.1 umol/l blood
ATP, umol/l blood ([2]; ex vivo, 20 min at 37° C.): 559.3 umol/l blood
ATP, umol/l blood ([2]; ex vivo, 40 min at 37° C.): 551.5 umol/l blood
ATP, umol/l blood ([2]; ex vivo, 60 min at 37° C.): 572.0 umol/l blood
ex vivo decay compared to in vivo clearance ([2]; rabbit blood): significantly longer; also recorded: slightly longer
concentration at 10 min ([2]; rabbit, blood, iv, 50 mg/kg, ex vivo, 10 min at 37° C., read-out: AP4 A, umol/l blood): 0.799 µmol/L
concentration at 20 min ([2]; rabbit, blood, iv, 50 mg/kg, ex vivo, 20 min at 37° C., read-out: AP4 A, umol/l blood): 0.21 µmol/L
concentration at 40 min ([2]; rabbit, blood, iv, 50 mg/kg, ex vivo, 40 min at 37° C., read-out: AP4 A, umol/l blood): 0.041 µmol/L
concentration at 1 h ([2]; rabbit, blood, iv, 50 mg/kg, ex vivo, 60 min at 37° C., read-out: AP4 A, umol/l blood): 0.037 µmol/L
minimal effective concentration ([3]; Oryctolagus cuniculus, Platelet, ADP 2×10^-5 M (tenfold that of ADP), read-out: concentration at which the anti-aggregatory effect was detected): 200 µM
effect of addition during ADP aggregation ([3]; added during aggregation, ADP 2×10^-5 M): blunted the secondary wave response to ADP and caused the dispersion of aggregated platelets
inhibition of ADP-induced aggregation ([3]; same dose as tested with collagen): almost complete inhibition
% CLOTS (incidence of thrombosis) [4, 9]: 56%
Clot Absent (rabbits) [4, 9]: 11
Clot Present (rabbits) [4, 9]: 14
difference in dimension and weight of clots versus controls ([4]; AP4 A 50 mg/kg over 2 hours): no significant difference
effect on collagen-induced aggregation after AP4 A infusion [5]: little effect
effect on ADP induced platelet aggregation [6]: competitively inhibits ADP induced platelet aggregation, causing an immediate dispersion of aggregated platelets
degradation products [7]: degraded to AMP and ATP
effect on preformed aggregates caused by collagen ([8]; added after aggregation, collagen 200 ug/ml (FIG. 2)): no effect
effect on collagen-induced aggregation ([8]; added prior to induction, collagen 200 ug/ml (FIG. 3B)): inhibiting slightly
effect on collagen-induced platelet aggregation ([8]; same dose that almost completely inhibits ADP-induced aggregation): little or no effect

From patent US5049550A, “Diadenosine 5', 5'"-p^1, p^4,-tetraphosphate analogs as antithrombotic agents” (Worcester Foundation for Experimental Biology, priority 1988, dated 1991)
